Experimental data: patent publication US7169781B2, “Imidazole derivatives and their use as pharmaceutical agents” (Hoffmann-La Roche Inc., priority 2003, dated 2007)

Legend:
Src (p60^c-src) = molecular target: T1, Src (p60^c-src) (Homo sapiens, UniProt P12931); test: SRC-Inhibitor-Assay (time-resolved fluorescence kinase assay); type: biochemical; details: ATP 5 μM; enzyme pre-incubated with inhibitor 15 min at 15° C.
T1 construct: purchased Upstate (UBI)
Experimental: SRC-Inhibitor-Assay Parameters:
Assay buffer: 4 mM MgCl2 • 2 mM TCEP • 50 mM HEPES • 0.1% Tween 20 • pH 7.3
Inhibitor: max. 25 μM • min. 0.42 nM Material:
Eu-labelled phosphotyrosine antibody:—for Lck Cisbio Mab PT66-K, • for Src EG&G Wallac PT66 Eu-W1024 (all commercially available).
Peptides: Ro: NH2-A-E-E-E-I-Y-G-E-F-E-A-K-K-K-K-CONH2 (SEQ ID NO: 1), and Ja133-Ro: Ja133-G-Aminocaprylic acid-A-E-E-E-I-Y-G-E-F-E-A-K-K-K-K-CONH2 (SEQ ID NO: 2) wherein Ja133 is LightCycler-Red 640-N-hydroxy succinimide ester; whereby both peptides were synthesized by an optimized solid phase peptide synthesis protocol (Merrifield, Fed. Proc. Fed. Amer. Soc. Exp. Biol. 21 (1962) 412) on a Zinsser SMP350 peptide synthesizer. Shortly, the peptide was assembled on 160 mg (22.8 μmol scale) of a Rink-Linker modified polystyrene solid phase by repeatedly conjugating an twenty fold excess of aminoacids each protected by temporary piperidine labile Fmoc- and permanent acid labile tert-Bu-, BOC- and Otert-Bu-groups depending on the side chain function. The substrate sequence AEEEIYGEFEAKKKK (SEQ ID NO: 1) was N-terminal additionally mounted with the spacer amino acids Aminocaprylic acid and Glycin. After cleavage of the N-terminal temporary protecting group the still attached and protected peptide was labeled with a 1.5 fold amount of LightCycler-Red 640-N-hydroxy succinimide ester (purchased by Roche Diagnostics GmbH) and triethylamine. After 3 hrs. the resin was washed with Dimethylformamide and Isopropanol until the eluates of the blue resin got colourless. […] The substrate was finally isolated by a preparative reverse phase HPLC purification. The purification yielded 12.2 mg RP-HPLC single peak pure blue material (lyophilisate). The identity was proven by MALDI mass spectroscopy [2720.0].
Enzymes: Upstate Lck (p56^lck, active), Upstate Src (p60^c-src, partially purified) were purchased from UBI.
Time-resolved Fluorescence Assay: Reader: Perkin Elmer, Wallac Viktor 1420-040 multilabel counter; Liquid handling system: Beckman Coulter, Biomek 2000.
ATP, Tween 20, HEPES were purchased from Roche Molecular Biochemicals, MgCl2 and MnCl2 were purchased from Merck Eurolab, TCEP was purchased from Pierce, 384 Well low volume fluorescence plates was purchased from Falcon.
At first the enzyme is pre-incubated for 15 min. at 15° C. in aqueous solution with corresponding amounts of inhibitors according to this invention. Then the phosphorylation reaction is started by adding a reaction mixture, containing ATP, Peptide and PT66, and subsequent shaking. The proceeding of this reaction is immediately monitored using time resolved fluorescence spectroscopy in a suitable well plate reader.
The IC50-values can be obtained from the reaction rates by using a non-linear curve fit (Excelfit).

c-met = molecular target: T2, c-met (Homo sapiens, UniProt P08581); test: C-met-Inhibitor-Assay (ELISA type assay measuring phosphorylation of c-met from HT29 cell lysate); type: biochemical; details: ATP final conc. 40 μM, 60 min at room temperature
T2 construct: Cell lysate of human colon adenocarcinoma HT29 known for its high content of c-met; endogenous in cells; host or cells: HT29 (ATCC HTB-38), human colon adenocarcinoma
From the text: C-met-Inhibitor-Assay: Assay Principle
C-met is a typical tyrosine kinase which is involved in metastasis, proliferation/apoptosis and angiogenesis of tumors. The assay is an ELISA type assay measuring the phosphorylation of c-met using a phospho-tyrosine specific antibody.
Cell lysate of human colon adenocarcinoma HT29 known for its high content of c-met is bound to the wells of a microtiterplate (MTP) via an anti-hHGF receptor antibody (anti-hHGFR). ATP-phosphorylation of c-met is detected in presence or absence of the test compounds by using a phospho-tyrosine mouse IgG and a POD labeled goat anti-mouse IgG detection system. Using the classical POD substrate TMB, an absorption at 450 nm/620 nm is used to calculate enzymatic activity.
Plates: 96-well polystyrene plates (NUNC) streptavidin-coated microtiter plates Cell line/Lysate: HT29 (ATCC HTB-38), human colon adenocarcinoma (confluence: 2.5×10^5 cells/cm^2) are washed with PBS and incubated with Lysis buffer for 10 min on ice. Supernatent is collected and diluted with TBS. Lysate is shockfrozen in liquid nitrogen and stored at −80° C.)
Reagents (all working solutions are kept at 4° C., unless stated otherwise): • anti-hHGFR detection stock solution: 50 μg/ml (R&D Systems, Cat.No. BAF 358) antibody final conc.: 1 μg/ml • p-Tyr (PY99) mouse stock solution: 200 μg/ml (Santa Cruz Biotechnology, monoclonal IgG2b Cat.No. SC-7020) final conc.: 0.2 μg/ml • goat-anti-mouse IgG: 2 ml (BIO RAD, Cat.No. 170-6516) • (H+L)-HRP Conjugate; final conc.: 1:2000 • Blocking Reagent: Roche Diagnostics GmbH, Cat.No.1112589 for ELISA diluted 1:10 in TBS • ATP: Adenosine-5′-triphosphate, stock solution 10 mM, stock solution 10 mM (Roche • Diagnostics GmbH, Cat.No. 127531) final conc.: 40 μM • TBS: Tris-buffered saline, 50 mM TRIS pH 7.5 (Roche Diagnostics GmbH, Cat.No. 708976), 150 mM NaCl (SIGMA, Cat.No. S-3014) • Wash buffer TBS-T: Tris-buffered saline, 50 mM TRIS pH 7.5 150 mM NaCl, containing 0.5% Tween20 • Kinase buffer: Tris-buffered saline, 50 mM TRIS pH 7.5, 100 mM NaCl, 60 mM MgCl2 (SIGMA Chemical Company, Cat.No. M-1028) • Lysis buffer: 50 mM TRIS pH 7.5 containing 1% Nonidet P40 (Roche Diagnostics GmbH, Cat.No.1754599) 0.5% Deoxycholic acid (SIGMA Chemical Company, Cat.No. D-6750) • final conc.: 1 mM 1 mM PMSF stock solution 70 mM (Roche Diagnostics GmbH, • Cat.No.837091 40 μl/ml Complete (Roche Diagnostics GmbH, Cat.No. 1836145) Final conc.: 40 μl/ml • TMB: Tetramethylbenzidine (Intergen Company, Cat.No. 91000) • Samples: 10 mM in DMSO (stored at −20° C.), thawed at room temperature
Procedure: • Add 50 μl of anti-hHGFR detection antibody in blocking reagent to assay plate (final conc. 1 μg/ml), incubate assay plate for 60 min at room temperature on an MTP shaker. • Remove anti-hHGFR detection antibody solution from assay plate. • Add 250 μl blocking reagent per well to assay plate, incubate assay plate for 20 h, at 4° C. • Remove blocking reagent from assay plate. • Add 50 μl of HT29 lysate, incubate assay plate for 180 min, at 4° C. on an MTP shaker. • Wash assay plate with 2×200 μl TBS buffer per well. • Add 40 μl of 0.2% DMSO in kinase buffer to assay plate. • Add 40 μl sample solution (dissolved in kinase buffer—final conc. 22.5 μM). • Dissolve samples (1:3 ratio) in MTP. • Add 10 μl ATP dissolved in kinase buffer (200 μM) to samples (final conc. 40 μM ATP). Positive control: add 40 μl kinase buffer plus 10 μl 200 μM ATP. Negative control: add 40 μl kinase buffer plus 10 μl kinase buffer without ATP. […]

T1 sequence (P12931 whole entry): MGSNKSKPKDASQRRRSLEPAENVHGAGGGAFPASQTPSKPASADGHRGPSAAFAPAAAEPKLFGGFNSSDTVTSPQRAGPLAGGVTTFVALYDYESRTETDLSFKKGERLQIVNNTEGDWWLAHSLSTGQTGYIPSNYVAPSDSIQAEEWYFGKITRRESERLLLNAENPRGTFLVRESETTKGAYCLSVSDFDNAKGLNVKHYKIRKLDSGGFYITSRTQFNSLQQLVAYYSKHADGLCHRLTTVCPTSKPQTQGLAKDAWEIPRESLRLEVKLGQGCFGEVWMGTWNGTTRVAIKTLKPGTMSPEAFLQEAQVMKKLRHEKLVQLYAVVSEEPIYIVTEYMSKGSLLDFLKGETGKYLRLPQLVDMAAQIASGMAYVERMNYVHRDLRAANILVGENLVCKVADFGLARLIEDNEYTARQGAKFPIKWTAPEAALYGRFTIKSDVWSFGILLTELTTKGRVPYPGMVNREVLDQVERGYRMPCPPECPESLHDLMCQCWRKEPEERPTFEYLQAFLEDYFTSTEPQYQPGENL
T2 sequence (P08581 25-1390): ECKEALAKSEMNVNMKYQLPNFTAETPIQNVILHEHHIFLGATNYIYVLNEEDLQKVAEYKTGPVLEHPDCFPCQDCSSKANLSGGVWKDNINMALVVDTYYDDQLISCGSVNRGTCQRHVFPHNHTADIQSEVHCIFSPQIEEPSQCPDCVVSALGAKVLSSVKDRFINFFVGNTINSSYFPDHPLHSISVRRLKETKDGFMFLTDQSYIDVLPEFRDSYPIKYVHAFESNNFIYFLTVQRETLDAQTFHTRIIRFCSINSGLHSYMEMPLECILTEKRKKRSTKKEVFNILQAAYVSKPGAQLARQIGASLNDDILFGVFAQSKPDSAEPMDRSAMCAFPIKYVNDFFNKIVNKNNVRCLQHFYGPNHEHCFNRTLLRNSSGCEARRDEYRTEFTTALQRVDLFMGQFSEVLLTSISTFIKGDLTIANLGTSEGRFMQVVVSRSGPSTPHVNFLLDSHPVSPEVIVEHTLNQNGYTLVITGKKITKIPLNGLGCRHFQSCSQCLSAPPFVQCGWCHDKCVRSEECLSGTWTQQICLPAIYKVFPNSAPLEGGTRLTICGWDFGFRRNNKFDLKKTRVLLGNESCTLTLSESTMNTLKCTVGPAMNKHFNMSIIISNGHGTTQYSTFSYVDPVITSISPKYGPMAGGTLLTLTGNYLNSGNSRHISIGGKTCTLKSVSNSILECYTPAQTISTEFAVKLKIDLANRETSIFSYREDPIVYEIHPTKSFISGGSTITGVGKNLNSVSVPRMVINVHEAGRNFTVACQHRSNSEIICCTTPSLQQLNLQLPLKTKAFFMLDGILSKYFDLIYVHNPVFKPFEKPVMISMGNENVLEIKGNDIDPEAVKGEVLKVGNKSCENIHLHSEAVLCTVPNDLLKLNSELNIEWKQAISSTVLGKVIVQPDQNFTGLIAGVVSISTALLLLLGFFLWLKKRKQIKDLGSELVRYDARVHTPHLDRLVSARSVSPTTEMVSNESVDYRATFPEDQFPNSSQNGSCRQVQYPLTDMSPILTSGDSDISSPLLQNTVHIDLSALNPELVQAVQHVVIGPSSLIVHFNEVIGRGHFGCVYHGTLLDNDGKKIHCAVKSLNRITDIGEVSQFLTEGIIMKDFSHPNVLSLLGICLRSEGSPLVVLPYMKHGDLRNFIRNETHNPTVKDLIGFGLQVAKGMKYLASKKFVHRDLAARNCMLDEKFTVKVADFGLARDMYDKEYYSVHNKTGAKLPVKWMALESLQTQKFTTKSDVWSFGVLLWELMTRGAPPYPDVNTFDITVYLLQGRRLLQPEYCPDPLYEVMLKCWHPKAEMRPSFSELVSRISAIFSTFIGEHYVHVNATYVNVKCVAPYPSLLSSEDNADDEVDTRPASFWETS

Compound	IC50 (Src (p60^c-src)) [nM]	IC50 (c-met) [nM]
CCN(CC)CCOc1ccc(Nc2nccc(-c3[nH]c(-c4c(Cl)cc(OCCO)cc4Cl)nc3-c3cccc(Cl)c3)n2)cc1 [Example H2.3.1, 2-(2,6-dichloro-4-[2-hydroxyethoxy]phenyl)-4-(3-chlorophenyl)-5-(2-[4-(2-diethylaminoethoxy)-phenylamino]pyrimidin-4-yl)-N—H-imidazole]	1.6	–
Clc1cccc(-c2nc(-c3c(Cl)cccc3Cl)[nH]c2-c2ccnc(Nc3ccc(N4CCOCC4)cc3)n2)c1 [Example H2.1.4, 2-(2,6-dichlorophenyl)-4-(3-chlorophenyl)-5-(2-[4-morpholinophenyl-amino]pyrimidin-4-yl)-N—H-imidazole]	23.3	84
C#Cc1cccc(-c2nc(-c3c(Cl)cccc3Cl)[nH]c2-c2ccnc(Nc3ccc(OCCO)cc3)n2)c1 [Example H4.1.2, 2-(2,6-dichlorophenyl)-4-(3-ethynylphenyl)-5-(2-[4-(2-hydroxyethoxy)-phenylamino]pyrimidin-4-yl)-N—H-imidazole]	33.3	90
C[S+]([O-])c1ccc(Nc2nccc(-c3[nH]c(-c4c(Cl)cc(OCCO)cc4Cl)nc3-c3cccc(Cl)c3)n2)cc1 (stereo not drawn) [Example H2.3.2, 2-(2,6-dichloro-4-[2-hydroxyethoxy]phenyl)-4-(3-chlorophenyl)-5-(2-[4-methylsufinyl-phenylamino]pyrimidin-4-yl)-N—H-imidazole]	331	–
CCN(CC)CCOc1ccc(Nc2nccc(-c3[nH]c(-c4c(Cl)cccc4Cl)nc3-c3cccc(Br)c3)n2)cc1 [Example H1.1, 2-(2,6-dichlorophenyl)-4-(3-bromophenyl)-5-(2-[4-(2-diethylamino-ethoxy)phenylamino]pyrimidin-4-yl)-N—H-imidazole]	6.7	5
CCN(CC)CCOc1ccc(Nc2nccc(-c3[nH]c(-c4c(Cl)cccc4Cl)nc3-c3ccc(Cl)cc3)n2)cc1 [Example H3.1.1, 2-(2,6-dichlorophenyl)-4-(4-chlorophenyl)-5-(2-[4-(2-diethylaminoethoxy)-phenylamino]pyrimidin-4-yl)-N—H-imidazole]	24.4	609

Further compounds by falling IC50 (Src (p60^c-src)), results first:

IC50 (Src (p60^c-src)) [nM]	IC50 (c-met) [nM]	Compound
31	167	CN(C)c1ccc(Nc2nccc(-c3[nH]c(-c4c(Cl)cccc4Cl)nc3-c3cccc(Cl)c3)n2)cc1 [Example H2.1.3, 2-(2,6-dichlorophenyl)-4-(3-chlorophenyl)-5-(2-[4-dimethylaminophenyl-amino]pyrimidin-4-yl)-N—H-imidazole]
6.7	–	O=S(=O)(NCCO)c1ccc(Nc2nccc(-c3[nH]c(-c4c(Cl)cc(OCCO)cc4Cl)nc3-c3cccc(Cl)c3)n2)cc1 [Example H2.3.3, 2-(2,6-dichloro-4-[2-hydroxyethoxy]phenyl)-4-(3-chlorophenyl)-5-(2-[4-(N-(2-hydroxyethyl)-ulfamoyl)phenylamino]pyrimidin-4-yl)-N—H-imidazole]
0.5	4	CCN(CC)CCOc1ccc(Nc2nccc(-c3nc(-c4c(Cl)cc(CO)cc4Cl)[nH]c3-c3cccc(Cl)c3)n2)cc1 [Example H2.2.1, 2-(2,6-dichloro-4-hydroxymethylphenyl)-4-(3-chlorophenyl)-5-(2-[4-(2-diethylaminoethoxy)-phenylamino]pyrimidin-4-yl)-N—H-imidazole]
